Measured values: patent publication US20160159789A1, “SUBSTITUTED PYRAZOLOPYRIDINES” (BAYER PHARMA AKTIENGESELLSCHAFT, priority 2013, published 2016)

Target: T1, human full-length MKNK1 (Homo sapiens, UniProt Q9BUB5, T385D)
T1 construct: purchased Carna Biosciences 02-145; host or cells: insect cells (baculovirus expression system)
Experiment: MKNK1 kinase high ATP assay (TR-FRET)
Format: biochemical
Conditions: high ATP (2 mM final), 15 min preincubation with enzyme, GST-MKNK1 (T344D)
In short: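 GST-tagged full-length human MKNK1 from insect cells, preincubated 15 min with compound at 22° C in HEPES pH 7.5/MgCl2/DTT buffer, then reacted 30 min with 2 mM ATP and 0.06 μM biotinylated peptide (final). Phosphopeptide detected by TR-FRET (anti-pS6 pSer236/Eu-ProteinG, streptavidin-XL665), 665/620 ratio normalised to no-enzyme and no-inhibitor controls.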

T1 sequence (Q9BUB5 1-424 isoform Q9BUB5-2 T344D): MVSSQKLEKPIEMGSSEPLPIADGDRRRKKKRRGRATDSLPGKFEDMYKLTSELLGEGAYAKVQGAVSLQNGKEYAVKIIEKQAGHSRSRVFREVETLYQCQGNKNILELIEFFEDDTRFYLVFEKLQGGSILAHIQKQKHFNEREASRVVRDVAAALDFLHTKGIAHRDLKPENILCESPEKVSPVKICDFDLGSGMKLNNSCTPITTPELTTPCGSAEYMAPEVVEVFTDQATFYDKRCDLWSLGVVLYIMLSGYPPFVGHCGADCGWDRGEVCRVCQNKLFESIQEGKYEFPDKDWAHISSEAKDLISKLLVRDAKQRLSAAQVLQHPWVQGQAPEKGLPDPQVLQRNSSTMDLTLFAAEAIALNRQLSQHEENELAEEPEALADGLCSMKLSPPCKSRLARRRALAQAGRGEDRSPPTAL

| IC50 [nM] | Structure (SMILES) |
| --- | --- |
| 35.8 | C[C@@H]1COCCN1C(=O)[C@H]1CCc2c(sc3ncnc(Nc4cnc5[nH]ncc5c4)c23)C1 [Example 103, [(3R)-3-Methylmorpholin-4-yl][(7S)-4-(1H-pyrazolo[3,4-b]pyridin-5-ylamino)-5,6,7,8-tetrahydro[1]benzothieno[2,3-d]pyrimidin-7-yl]methanone] |
| 28.7 | C[C@H]1COCCN1C(=O)[C@H]1CCc2c(sc3ncnc(Nc4cnc5[nH]ncc5c4)c23)C1 [Example 104, [(3S)-3-Methylmorpholin-4-yl][(7S)-4-(1H-pyrazolo[3,4-b]pyridin-5-ylamino)-5,6,7,8-tetrahydro[1]benzothieno[2,3-d]pyrimidin-7-yl]methanone] |
| 18.1 | C[C@@H]1CN(C(=O)[C@H]2CCc3c(sc4ncnc(Nc5cnc6[nH]ncc6c5)c34)C2)C[C@H](C)O1 [Example 105, [(2R,6S)-2,6-Dimethylmorpholin-4-yl][(7S)-4-(1H-pyrazolo[3,4-b]pyridin-5-ylamino)-5,6,7,8-tetrahydro[1]benzothieno[2,3-d]pyrimidin-7-yl]methanone] |
| 20.4 | CN1CCN(C(=O)[C@H]2CCc3c(sc4ncnc(Nc5cnc6[nH]ncc6c5)c34)C2)CC1 [Example 106, (4-Methylpiperazin-1-yl)[(7S)-4-(1H-pyrazolo[3,4-b]pyridin-5-ylamino)-5,6,7,8-tetrahydro[1]benzothieno[2,3-d]pyrimidin-7-yl]methanone] |
| 13.3 | CN(C)C1CCN(C(=O)[C@H]2CCc3c(sc4ncnc(Nc5cnc6[nH]ncc6c5)c34)C2)CC1 [Example 107, [4-(Dimethylamino)piperidin-1-yl][(7S)-4-(1H-pyrazolo[3,4-b]pyridin-5-ylamino)-5,6,7,8-tetrahydro[1]benzothieno[2,3-d]pyrimidin-7-yl]methanone] |
| 0.7 | COc1nc2[nH]ncc2cc1Nc1ncnc2sc3c(c12)CC[C@H](C(=O)N1CC(C#N)C1)C3 [Example 108, 1-({(7S)-4-[(6-Methoxy-1H-pyrazolo[3,4-b]pyridin-5-yl)amino]-5,6,7,8-tetrahydro[1]benzothieno[2,3-d]pyrimidin-7-yl}carbonyl)azetidine-3-carbonitrile] |
| 0.7 | COc1nc2[nH]ncc2cc1Nc1ncnc2sc3c(c12)CC[C@H](C(=O)N1CC2(COC2)C1)C3 [Example 109] |
| 0.4 | COc1nc2[nH]ncc2cc1Nc1ncnc2sc3c(c12)CC[C@H](C(=O)N1CC[C@@H](N(C)C)C1)C3 [Example 110, [(3R)-3-(Dimethylamino)pyrrolidin-1-yl]{(7S)-4-[(6-methoxy-1H-pyrazolo[3,4-b]pyridin-5-yl)amino]-5,6,7,8-tetrahydro[1]benzothieno[2,3-d]pyrimidin-7-yl}methanone] |
| 1.3 | COc1nc2[nH]ncc2cc1Nc1ncnc2sc3c(c12)CC[C@H](C(=O)N1CC[C@H](N(C)C)C1)C3 [Example 111, [(3S)-3-(Dimethylamino)pyrrolidin-1-yl]{(7S)-4-[(6-methoxy-1H-pyrazolo[3,4-b]pyridin-5-yl)amino]-5,6,7,8-tetrahydro[1]benzothieno[2,3-d]pyrimidin-7-yl}methanone] |
| 4.6 | CCN(C)C(=O)[C@H]1CCc2c(sc3ncnc(Nc4cc5cn[nH]c5nc4O)c23)C1 [Example 112, (7S)—N-Ethyl-4-[(6-hydroxy-1H-pyrazolo[3,4-b]pyridin-5-yl)amino]-N-methyl-5,6,7,8-tetrahydro[1]benzothieno[2,3-d]pyrimidine-7-carboxamide] |
| 3.3 | CCCN(C)C(=O)[C@H]1CCc2c(sc3ncnc(Nc4cc5cn[nH]c5nc4O)c23)C1 [Example 113, (7S)-4-[(6-Hydroxy-1H-pyrazolo[3,4-b]pyridin-5-yl)amino]-N-methyl-N-propyl-5,6,7,8-tetrahydro[1]benzothieno[2,3-d]pyrimidine-7-carboxamide] |
| 4.6 | CC(C)N(C)C(=O)[C@H]1CCc2c(sc3ncnc(Nc4cc5cn[nH]c5nc4O)c23)C1 [Example 114, (7S)-4-[(6-Hydroxy-1H-pyrazolo[3,4-b]pyridin-5-yl)amino]-N-methyl-N-(propan-2-yl)-5,6,7,8-tetrahydro[1]benzothieno[2,3-d]pyrimidine-7-carboxamide] |
| 6.9 | O=C([C@H]1CCc2c(sc3ncnc(Nc4cc5cn[nH]c5nc4O)c23)C1)N1C[C@@H]2C[C@H]1CO2 [Example 115] |
| 2.1 | CN1CCN(C(=O)[C@H]2CCc3c(sc4ncnc(Nc5cc6cn[nH]c6nc5O)c34)C2)CC1 [Example 116] |
| 1.4 | CN(C)C1CCN(C(=O)[C@H]2CCc3c(sc4ncnc(Nc5cc6cn[nH]c6nc5O)c34)C2)CC1 [Example 117, [4-(Dimethylamino)piperidin-1-yl]{(7S)-4-[(6-hydroxy-1H-pyrazolo[3,4-b]pyridin-5-yl)amino]-5,6,7,8-tetrahydro[1]benzothieno[2,3-d]pyrimidin-7-yl}methanone] |
| 8.1 | CN(C)CCCNC(=O)c1[nH]c2ncnc(Nc3cc4cn[nH]c4cn3)c2c1Br [Example 118, 5-Bromo-N-[3-(dimethylamino)propyl]-4-(1H-pyrazolo[3,4-c]pyridin-5-ylamino)-7H-pyrrolo[2,3-d]pyrimidine-6-carboxamide] |

| IC50 [nM] | Structure (SMILES) |
| --- | --- |
| 67.7 | CN(C)CCCN(C)C(=O)c1[nH]c2ncnc(Nc3cc4cn[nH]c4cn3)c2c1Br [Example 119, 5-Bromo-N-[3-(dimethylamino)propyl]-N-methyl-4-(1H-pyrazolo[3,4-c]pyridin-5-ylamino)-7H-pyrrolo[2,3-d]pyrimidine-6-carboxamide] |
| 14.5 | CN(C)CCNC(=O)c1[nH]c2ncnc(Nc3cc4cn[nH]c4cn3)c2c1Br [Example 120, 5-Bromo-N-[2-(dimethylamino)ethyl]-4-(1H-pyrazolo[3,4-c]pyridin-5-ylamino)-7H-pyrrolo[2,3-d]pyrimidine-6-carboxamide] |
| 30.1 | C[C@H]1COCCN1C(=O)c1[nH]c2ncnc(Nc3cc4cn[nH]c4cn3)c2c1Br [Example 121, [5-Bromo-4-(1H-pyrazolo[3,4-c]pyridin-5-ylamino)-7H-pyrrolo[2,3-d]pyrimidin-6-yl][(3S)-3-methylmorpholin-4-yl]methanone] |
| 230 | CN(C)C(=O)c1nc2c(Nc3cnc4[nH]ncc4c3)ncnc2s1 [Example 123, N,N-Dimethyl-7-(1H-pyrazolo[3,4-b]pyridin-5-ylamino)[1,3]thiazolo[5,4-d]pyrimidine-2-carboxamide] |
| 65.9 | CN(C)CCNC(=O)c1[nH]c2ncnc(Nc3cnc4[nH]ncc4c3)c2c1Br [Example 124, 5-Bromo-N-[2-(dimethylamino)ethyl]-4-(1H-pyrazolo[3,4-b]pyridin-5-ylamino)-7H-pyrrolo[2,3-d]pyrimidine-6-carboxamide] |
| 29.2 | CN(C)CCCNC(=O)c1[nH]c2ncnc(Nc3cnc4[nH]ncc4c3)c2c1Br [Example 125, 5-Bromo-N-[3-(dimethylamino)propyl]-4-(1H-pyrazolo[3,4-b]pyridin-5-ylamino)-7H-pyrrolo[2,3-d]pyrimidine-6-carboxamide] |
| 171 | O=C(c1nc2c(Nc3cnc4[nH]ncc4c3)ncnc2s1)N1CCCCC1 [Example 126, Piperidin-1-yl[7-(1H-pyrazolo[3,4-b]pyridin-5-ylamino)[1,3]thiazolo[5,4-d]pyrimidin-2-yl]methanone] |
| 76.8 | CN(C)C1CCN(C(=O)c2[nH]c3ncnc(Nc4cnc5[nH]ncc5c4)c3c2Br)CC1 [Example 127, [5-Bromo-4-(1H-pyrazolo[3,4-b]pyridin-5-ylamino)-7H-pyrrolo[2,3-d]pyrimidin-6-yl][4-(dimethylamino)piperidin-1-yl]methanone] |
| 4290 | CN(C)C(=O)CCN(C)C(=O)c1nc2c(Nc3cnc4[nH]ncc4c3)ncnc2s1 [Example 129, N-[3-(Dimethylamino)-3-oxopropyl]-N-methyl-7-(1H-pyrazolo[3,4-b]pyridin-5-ylamino)[1,3]thiazolo[5,4-d]pyrimidine-2-carboxamide] |
| 212 | COc1nc2[nH]ncc2cc1Nc1ncnc2sc(C(=O)N(C)CC(=O)N(C)C)nc12 [Example 130, N-[2-(Dimethylamino)-2-oxoethyl]-7-[(6-methoxy-1H-pyrazolo[3,4-b]pyridin-5-yl)amino]-N-methyl[1,3]thiazolo[5,4-d]pyrimidine-2-carboxamide] |
| 6.7 | COc1nc2[nH]ncc2cc1Nc1ncnc2[nH]c(C(=O)N(C)CCCN(C)C)c(Br)c12 [Example 131, 5-Bromo-N-[3-(dimethylamino)propyl]-4-[(6-methoxy-1H-pyrazolo[3,4-b]pyridin-5-yl)amino]-N-methyl-7H-pyrrolo[2,3-d]pyrimidine-6-carboxamide] |
| 23.4 | CN(C)CCCN(C)C(=O)c1[nH]c2ncnc(Nc3cc4cn[nH]c4nc3O)c2c1Br [Example 132, 5-Bromo-N-[3-(dimethylamino)propyl]-4-[(6-hydroxy-1H-pyrazolo[3,4-b]pyridin-5-yl)amino]-N-methyl-7H-pyrrolo[2,3-d]pyrimidine-6-carboxamide] |
| 150 | COc1nc2[nH]ncc2cc1Nc1ncnc2sc(C(=O)N3CCCCC3)nc12 [Example 133, {7-[(6-Methoxy-1H-pyrazolo[3,4-b]pyridin-5-yl)amino][1,3]thiazolo[5,4-d]pyrimidin-2-yl}(piperidin-1-yl)methanone] |
| 10.8 | O=C(c1[nH]c2ncnc(Nc3cc4cn[nH]c4nc3O)c2c1Br)N1CCCCC1 [Example 134] |
| 7.3 | COc1nc2[nH]ncc2cc1Nc1ncnc2[nH]c(C(=O)N3CCOC[C@@H]3C)c(Br)c12 [Example 135] |
| 0.5 | COc1nc2[nH]ncc2cc1Nc1ncnc2sc3c(c12)CC[C@H](C(=O)N(C)CCC(F)(F)F)C3 [Example 136, (7S)-4-[(6-Methoxy-1H-pyrazolo[3,4-b]pyridin-5-yl)amino]-N-methyl-N-(3,3,3-trifluoropropyl)-5,6,7,8-tetrahydro[1]benzothieno[2,3-d]pyrimidine-7-carboxamide] |
